According to patent US7985876B2, “Substituted dibenzoic acid derivatives and use thereof” (Bayer Schering Pharma Aktiengesellschaft, priority 2007, dated 2011):

Experiments:
saphenous artery rings = experiment: Vasorelaxant effect in vitro (phenylephrine-contracted artery rings); format: cell-based, Rabbits; conditions: Oryctolagus cuniculus; rabbit saphenous artery rings, contraction induced by phenylephrine
Experimental: Rabbits are anesthetized and sacrificed by intravenous injection of thiopental sodium (about 50 mg/kg) and exsanguinated. The saphenous artery is removed and divided into rings 3 mm wide. The rings are mounted singly on in each case a pair of triangular hooks open at the end and made of 0.3 mm-thick special wire (Remanium®). Each ring is placed under an initial tension in 5 ml organ baths with Krebs-Henseleit solution which is at 37° C., is gassed with 95% O2/5% CO2 and has the following composition: NaCl 119 mM; KCl 4.8 mM; CaCl2×2H2O 1 mM; MgSO4×7H2O 1.4 mM; KH2PO4 1.2 mM; NaHCO3 25 mM; glucose 10 mM; bovine serum albumin 0.001%. The force of contraction is detected with Statham UC2 cells, amplified and digitized via A/D converters (DAS-1802 HC, Keithley Instruments, Munich) and recorded in parallel on chart recorders. Contractions are induced by addition of phenylephrine.
After several (generally 4) control cycles, the substance to be investigated is added in each further run in increasing dosage, and the height of the contraction achieved under the influence of the test substance is compared with the height of the contraction reached in the last preceding run. The concentration necessary to reduce the contraction reached in the preceding control by 50% is calculated from this (IC50). The standard application volume is 5 μl. […]

[1] = target: T1, Heme-containing sGC (recombinant soluble guanylate cyclase) (Rattus norvegicus, UniProt P20595); experiment: Stimulation of recombinant soluble guanylate cyclase (sGC) in vitro, heme-containing enzyme; format: biochemical
T1 construct: made in house
T1 sequence (P20595 1-619): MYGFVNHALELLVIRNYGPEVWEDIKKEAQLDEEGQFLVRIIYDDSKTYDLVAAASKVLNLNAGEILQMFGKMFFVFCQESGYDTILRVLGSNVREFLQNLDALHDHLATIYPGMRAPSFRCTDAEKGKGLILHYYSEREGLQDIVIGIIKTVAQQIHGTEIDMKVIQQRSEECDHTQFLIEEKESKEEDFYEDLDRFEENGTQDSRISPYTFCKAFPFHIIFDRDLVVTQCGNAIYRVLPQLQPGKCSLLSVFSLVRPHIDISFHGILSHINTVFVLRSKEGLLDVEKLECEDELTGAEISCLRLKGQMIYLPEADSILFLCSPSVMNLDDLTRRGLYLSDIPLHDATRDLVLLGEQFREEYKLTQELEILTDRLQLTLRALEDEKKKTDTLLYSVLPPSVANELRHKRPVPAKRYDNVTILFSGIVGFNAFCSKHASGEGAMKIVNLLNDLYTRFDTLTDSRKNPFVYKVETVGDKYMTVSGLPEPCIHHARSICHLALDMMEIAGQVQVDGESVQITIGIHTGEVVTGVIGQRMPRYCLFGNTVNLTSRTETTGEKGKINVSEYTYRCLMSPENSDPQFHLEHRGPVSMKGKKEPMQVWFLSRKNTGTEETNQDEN
T1 sequence (P19686 1-690 partner): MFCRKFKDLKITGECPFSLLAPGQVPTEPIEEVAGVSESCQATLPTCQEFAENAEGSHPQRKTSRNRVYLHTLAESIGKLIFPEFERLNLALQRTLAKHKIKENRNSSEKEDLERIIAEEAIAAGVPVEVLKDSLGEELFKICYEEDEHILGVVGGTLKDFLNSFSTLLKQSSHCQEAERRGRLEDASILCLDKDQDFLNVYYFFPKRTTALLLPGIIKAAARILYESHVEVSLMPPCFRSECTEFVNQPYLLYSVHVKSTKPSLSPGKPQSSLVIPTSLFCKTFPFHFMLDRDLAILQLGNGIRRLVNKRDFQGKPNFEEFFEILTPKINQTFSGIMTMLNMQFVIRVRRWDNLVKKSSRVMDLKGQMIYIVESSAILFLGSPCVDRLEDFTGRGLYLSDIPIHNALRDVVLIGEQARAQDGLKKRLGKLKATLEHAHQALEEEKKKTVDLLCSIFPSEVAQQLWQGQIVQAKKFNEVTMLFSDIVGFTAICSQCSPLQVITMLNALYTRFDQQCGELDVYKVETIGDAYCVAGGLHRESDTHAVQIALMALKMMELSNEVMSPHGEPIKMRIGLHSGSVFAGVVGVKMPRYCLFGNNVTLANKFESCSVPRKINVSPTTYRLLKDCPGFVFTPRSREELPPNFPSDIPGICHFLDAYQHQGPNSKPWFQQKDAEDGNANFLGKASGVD
Source text: Hoenicka, E. M. Becker, H. Apeler, T. Sirichoke, H. Schroeder, R. Gerzer and J.-P. Stasch, “Purified soluble guanylyl cyclase expressed in a baculovirus/Sf9 system: Stimulation by YC-1, nitric oxide, and carbon oxide”, J. Mol. Med. 77 (1999), 14-23. The heme-free guanylate cyclase is obtained by adding Tween 20 to the sample buffer (0.5% in the final concentration).
(§1) The activation of sGC by a test substance is reported as n-fold stimulation of the basal activity.

[2] = target: T2, Heme-free sGC (recombinant soluble guanylate cyclase) (Rattus norvegicus, UniProt P20595); experiment: Stimulation of recombinant soluble guanylate cyclase (sGC) in vitro, heme-free enzyme; format: biochemical
T2 construct: made in house
T2 sequence (P20595 1-619): T1 sequence (P20595 1-619)
T2 sequence (P19686 1-690 partner): T1 sequence (P19686 1-690 partner)
Experimental: Investigations on the stimulation of recombinant soluble guanylate cyclase (sGC) by the compounds according to the invention with and without sodium nitroprusside, and with and without the heme-dependent sGC inhibitor 1H-1,2,4-oxadiazole-(4,3a)-quinoxalin-1-one (ODQ) are carried out by the method described in detail in the following reference: M. Hoenicka, E. M. Becker, H. Apeler, T. Sirichoke, H. Schroeder, R. Gerzer and J.-P. Stasch, “Purified soluble guanylyl cyclase expressed in a baculovirus/Sf9 system: Stimulation by YC-1, nitric oxide, and […]”, J. Mol. Med. 77 (1999), 14-23. The heme-free guanylate cyclase is obtained by adding Tween 20 to the sample buffer (0.5% in the final concentration).
as §1

## O=C(O)c1ccc(CCC(/C=C/c2cc(F)ccc2OCc2ccc(C(F)(F)F)cc2)CCc2ccc(C(=O)O)cc2)cc1 [Example 1, 4-[(4E)-3-[2-(4-Carboxyphenyl)ethyl]-5-(5-fluoro-2-{[4-(trifluoromethyl)benzyl]oxy}phenyl)pent-4-en-1-yl]benzoic acid]
Saphenous artery rings
  IC50: 250 nM
[1]; 0.01 μM Example 1
  Stimulation (n-fold) heme-containing sGC, +0.1 μM DEA/NO: 24.1 n-fold
  Stimulation (n-fold) heme-containing sGC, +10 μM ODQ: 7.0 n-fold
  Stimulation (n-fold) heme-containing sGC, basal: 1.3 n-fold
[1]; 0.1 μM Example 1
  Stimulation (n-fold) heme-containing sGC, +0.1 μM DEA/NO: 25.5 n-fold
  Stimulation (n-fold) heme-containing sGC, +10 μM ODQ: 16.2 n-fold
  Stimulation (n-fold) heme-containing sGC, basal: 1.9 n-fold
[1]; 1 μM Example 1
  Stimulation (n-fold) heme-containing sGC, +0.1 μM DEA/NO: 33.4 n-fold
  Stimulation (n-fold) heme-containing sGC, +10 μM ODQ: 60.6 n-fold
  Stimulation (n-fold) heme-containing sGC, basal: 6.4 n-fold
[1]; 10 μM Example 1
  Stimulation (n-fold) heme-containing sGC, +0.1 μM DEA/NO: 41.5 n-fold
  Stimulation (n-fold) heme-containing sGC, +10 μM ODQ: 92.2 n-fold
  Stimulation (n-fold) heme-containing sGC, basal: 11.0 n-fold
[1]; combination of Example 1 and DEA/NO
  Synergy with the NO donor DEA/NO on sGC stimulation: no synergistic effect
[2]; 0.01 μM Example 1, heme-free by 0.5% Tween 20
  Stimulation (n-fold) heme-free sGC, basal: 1.0 n-fold
[2]; 0.1 μM Example 1, heme-free by 0.5% Tween 20
  Stimulation (n-fold) heme-free sGC, basal: 2.3 n-fold
[2]; 1 μM Example 1, heme-free by 0.5% Tween 20
  Stimulation (n-fold) heme-free sGC, basal: 9.1 n-fold
[2]; 10 μM Example 1, heme-free by 0.5% Tween 20
  Stimulation (n-fold) heme-free sGC, basal: 16.7 n-fold
